One series has as its system filaggrin gene. Description: Filaggrin gene expression test by acyl valines or acyl alanines (real time PCR, 24 hours). In kind it is cell-based. The conditions noted are these: Homo sapiens. As for the experimental part:
Human normal epidermal keratinocytes NHEK (NB) (manufactured by KURABO INDUSTRIES LTD.) were precultured with HuMedia-KG2 (manufactured by KURABO INDUSTRIES LTD.) and the precultured human normal epidermal keratinocytes were adjusted in a concentration of 15×10^4 cells/mL. After adjusting the concentration, 2 mL of the culture solution (that is, 30×10^4 cells/well) was poured to a plate having 6 wells and the poured culture solution was cultivated for 1 day. […] C12Ala), decanoyl-alanine (Example 21: C10Ala), octanoyl-alanine (Example 22: C8Ala), hexanoyl-alanine (Example 23: C6Ala), and butanoyl-alanine (Example 24: C4Ala)) were added to the wells so that each of the samples has the concentration illustrated in respective graphs and the added samples were reacted for 24 hours. After the reaction, entire RNA was extracted from the cells and subjected to reverse transcription. The amplified amounts of the target gene (filaggrin) were measured by real time PCR (n=2). […] GAPDH was used as a corrected gene. Calculation was carried out using a comparative CT method. TaqMan (registered trademark) Gene Expression was used as a primer and a probe and FAM was used as a fluorescent dye. The following evaluation was carried out depending on the amplified amounts. The results are listed in Table 2 and 3 and illustrated in FIGS. 4 and 5.

Series [1] concerns Human normal epidermal keratinocytes NHEK (NB). The series is described as follows: Cytotoxicity test (Neutral Red, cell survival rate). The conditions noted are these: 500 μM, 24 hours; for Cell survival rate (%): relative to light absorbance of the control. In kind it is cell-based. Here is the method: Human normal epidermal keratinocytes NHEK (NB) (manufactured by KURABO INDUSTRIES LTD.) were precultured with HuMedia-KG2 (manufactured by KURABO INDUSTRIES LTD.) and the precultured human normal epidermal keratinocytes were adjusted in a concentration of 15×10^4 cells/mL. After adjusting the concentration, 2 mL of the culture solution (that is, 30×10^4 cells/well) was poured to a plate having 6 wells and the poured culture solution was cultivated for 1 day. Samples (lauroyl-valine (Example 25: C12Val), decanoyl-valine (Example 26: C10Val), octanoyl-valine (Example 27: C8Val), hexanoyl-valine (Example 28: C6Val), butanoyl-valine (Example 29: C4Val), and acetyl-valine (Example 30: C2Val)) were added to the wells so that each of the samples has the concentration illustrated in respective graphs and the added samples were reacted for 24 hours. Thereafter, the culture medium was discarded and replaced with 2 mL/well of Neutral Red solution. The resultant sample was further cultured for 2 hours. As the Neutral Red solution, a solution prepared by diluting Neutral Red (manufactured by KURABO INDUSTRIES LTD.) with HuMedia-KG2 culture medium/normal saline solution (2:1) to 1/100 was used. The cells stained with the Neutral Red solution were washed with PBS (-) one time, thereafter fixed by 1.5 mL/well of 1% CaCl2/1% formalin solution, extracted by adding 1.5 mL/well of 1% acetic acid/50% ethanol solution at room temperature for 20 minutes. The light absorbance of the resultant sample was measured using a plate reader at 540/630 nm.
The following evaluation was carried out depending on the cell survival rates. The results are listed in Table 4 and illustrated in FIG. 6.

The nature of series [2]: Moisture absorption/retention test. In kind it is physicochemical. The conditions noted are these: for Increased weight ratio after 7 days at 35% RH (%) (B): following 65% RH; for (B)/(A) × 100(%): ratio of weight increase at 35% RH to that at 65% RH; for moisturizing power: compared with glycerol and sorbitol. The text has this:
About 1 g of each compound was precisely weighed in a weighing bottle and the weighed samples were placed in a constant-temperature and constant-humidity chamber (LH-30-10, manufactured by NAGANO SCIENCE CO, LTD.) in which the humidity was set to 65% RH to measure a weight increase ratio (A) after 7 days. Subsequently, the same samples were placed in the constant-temperature and constant-humidity chamber in which the humidity was set to 35% RH to measure a weight increase ratio (B) after 7 days. It can be considered that, as the ratio of (B) to (A) becomes higher, more moisture can be retained even when the environment becomes low humidity and thus that the compound having the higher value of the ratio can be considered as a compound having higher moisturizing power.

[3] abbreviates: 24 hours, NHEK (NB), control = 100%, read-out: Amplified amount (%).
The mark [4] stands for this setting: 24 hours, NHEK (NB), read-out: Evaluation (amplified amount).
[5] abbreviates: 10 μM, 24 hours, NHEK (NB), control = 100%, read-out: Amplified amount (%).
[6] abbreviates: 10 μM, 24 hours, NHEK (NB), read-out: Evaluation (amplified amount).

Structures are written as SMILES. Like-named read-outs stand apart in the source and are kept apart here.

On to `CCCCCC(=O)N[C@H](C(=O)O)C(C)C` [Example 17, hexanoyl-valine], for which, in the series with filaggrin gene (setting [3]), the activity at 500 µM was found to be 112%. Also, the activity at 500 µM in the series on filaggrin gene (setting [4]) was 100 to 200%. Besides, in series [1], the “Evaluation (cell survival rate)” value was “A (99% or higher)” and the “Cell survival rate (%)” value is reported as 99%.

For the molecule `OC[C@@H](O)[C@@H](O)[C@H](O)[C@@H](O)CO` [Comparative Example 4, Sorbitol, reference compound], in series [2], the “Increased weight ratio after 7 days at 35% RH (%) (B)” value (from here on “Increased weight ratio … (%) (B)”) is listed as 0.5%, the “Increased weight Ratio after 7 days at 65% RH (%) (A)” value (“Increased weight Ratio … (%) (A)” for short) worked out at 4.2% and the “(B)/(A) × 100(%)” value is 12.0%.

Turning to `CCCCCCCCCC(=O)N[C@@H](C)C(=O)O` [Example 21, decanoyl-alanine], the results for the activity at 10 µM in the series on filaggrin gene (setting [5]) and in the series with filaggrin gene (setting [6]) were 117% and 100 to 200%, respectively.

As to `CCCC(=O)N[C@H](C(=O)O)C(C)C` [Example 18, butanoyl-valine], the activity at 500 µM in the series with filaggrin gene (setting [3]) came to 126%. In addition, in the series with filaggrin gene (setting [4]), the activity at 500 µM lay in the range of 100 to 200%. In addition, in series [1], the “Evaluation (cell survival rate)” value is “A (99% or higher)” and the “Cell survival rate (%)” value is given as 102%.

With `OCC(O)CO` [Comparative Example 3, Glycerol, reference compound], in series [2], the “Increased weight ratio … (%) (B)” value is recorded as 13.2%, the “Increased weight Ratio … (%) (A)” value is 48.1% and the “(B)/(A) × 100(%)” value is 27.4%.

As for `CCCCCCCC(=O)N[C@H](C(=O)O)C(C)C` [Example 16, octanoyl-valine], the activity at 500 µM is 302% in the series on filaggrin gene (setting [3]) and greater than 200% with filaggrin gene (setting [4]). Moreover, the “Evaluation (cell survival rate)” value in series [1] is reported as “A (99% or higher)”. In addition, the “Cell survival rate (%)” value in series [1] is 100%.

Turning to `CCCCCCCCCC(=O)N[C@H](C(=O)O)C(C)C` [Example 15, decanoyl-valine], the activity at 10 µM with filaggrin gene (setting [5]) worked out at 171%. Also, in the series on filaggrin gene (setting [6]), the activity at 10 µM lay in the range of 100 to 200%. Besides, in series [1], the “Evaluation (cell survival rate)” value is “B (75% or higher and lower than 99%)”; the “Cell survival rate (%)” value is 75%.

`CCCCCCCC(=O)N[C@@H](C)C(=O)O` [Example 22, octanoyl-alanine]: the activity at 500 µM in the series with filaggrin gene (setting [3]) was 256%; with filaggrin gene (setting [4]), greater than 200%.

Take `CC(=O)N[C@H](C(=O)O)C(C)C` [Example 19, acetyl-valine]: the activity at 500 µM in the series with filaggrin gene (setting [3]) came out at 141%. Further, the activity at 500 µM in the series on filaggrin gene (setting [4]) is 100 to 200%. In addition, in series [1], the “Evaluation (cell survival rate)” value was “A (99% or higher)” and the “Cell survival rate (%)” value came out at 105%.

Take `CCCC(=O)N[C@@H](C)C(=O)O` [Example 24, butanoyl-alanine]: the values for the activity at 500 µM in the series with filaggrin gene (setting [3]) and in the series with filaggrin gene (setting [4]) were 162% and 100 to 200%, respectively.

Take `CCCCCCCCCCCC(=O)N[C@H](C(=O)O)C(C)C` [Example 14, lauroyl-valine]: the activity at 10 µM in the series with filaggrin gene (setting [5]) was 200%. In the series with filaggrin gene (setting [6]), the activity at 10 µM was greater than 200%. Also, in series [1], the “Evaluation (cell survival rate)” value is recorded as “D (Lower than 50%)” and the “Cell survival rate (%)” value was found to be 3%. Further, the cytotoxicity result in series [1] (in words) is “high”.

Turning to `CCCCCC(=O)N[C@@H](C)C(=O)O` [Example 23, hexanoyl-alanine], the activity at 500 µM is 125% in the series with filaggrin gene (setting [3]) and 100 to 200% in the series with filaggrin gene (setting [4]).

Turning to `CCCCCCCC(=O)N[C@@H](C)C(=O)[O-].[Na+]` [Example 13, N-octanoyl-L-alanine sodium salt], in series [2], the “Increased weight ratio … (%) (B)” value is given as 10.6%, the “Increased weight Ratio … (%) (A)” value worked out at 29.6%, the moisturizing power result is listed as “high moisturizing power” and the “(B)/(A) × 100(%)” value was 35.9%.

For `CCCCCCCC(=O)N[C@H](C(=O)[O-])C(C)C.[Na+]` [Example 12, N-octanoyl-L-valine sodium salt], in series [2], the “Increased weight ratio … (%) (B)” value is reported as 8.4%, the “Increased weight Ratio … (%) (A)” value turned out to be 25.4%, the moisturizing power entry is “high moisturizing power” and the “(B)/(A) × 100(%)” value was 33.2%.

Take `CCCCCCCCCCCC(=O)N[C@@H](C)C(=O)O` [Example 20, lauroyl-alanine]: the activity at 10 µM is 128% with filaggrin gene (NHEK, 24 h, read-out: Amplified amount (%)) and 100 to 200% in the series with filaggrin gene (NHEK, 24 h, read-out: Evaluation (amplified amount)).

For the origin of these results see US10406086B2, “Moisturizer and cosmetic including the same” (AJINOMOTO CO., INC., priority 2015, dated 2019).
